The source of these data is US12459922B2 (Gilead Sciences, Inc., priority 2022, dated 2025).

The test deals with endogenous cellular STAT1 (phosphorylated at Tyr701) in NCI-H1373 cells. Briefly: Phospho-STAT1 (Tyr701) LANCE Ultra TR-FRET Detection Assay. The class given is cell-based. The settings on record: Homo sapiens, NCI-H1373, 48 h, phospho-STAT1 (Tyr701) induction, read-out: NH1373 pSTAT1 EC50. (TR-FRET usually uses a lanthanide donor and a delayed reading to cut background.)

By EC50 is commonly meant the concentration needed to bring the measured effect to its halfway point. `Nc1nc(-c2cc3ccn(C[C@H]4CCC[C@H](Nc5cn[nH]c(=O)c5C(F)(F)F)C4)c(=O)c3cc2F)ncc1C(F)(F)F` [Example 227, 6-(4-amino-5-(trifluoromethyl)pyrimidin-2-yl)-7-fluoro-2-(((1S,3S)-3-((6-oxo-5-(trifluoromethyl)-1,6-dihydropyridazin-4-yl)amino)cyclohexyl)methyl)isoquinolin-1(2H)-one]: the EC50 amounted to 15.7 nM. The same measure for `O=c1[nH]ncc(N[C@H]2CCCC[C@@H]2CCn2ccc3cc(-c4ncc(C(F)(F)F)cn4)c(F)cc3c2=O)c1C(F)(F)F` [Example 450, 7-fluoro-2-[2-[(1R,2S)-2-[[6-oxo-5-(trifluoromethyl)-1H-pyridazin-4-yl]amino]cyclohexyl]ethyl]-6-[5-(trifluoromethyl)pyrimidin-2-yl]isoquinolin-1-one]: 11.4 nM; for `O=c1[nH]ncc(N[C@H]2CCC[C@@H](Cn3cnc4cc(-c5ncc(Cl)cn5)c(F)cc4c3=O)C2)c1C(F)(F)F` [Example 247, 7-(5-chloropyrimidin-2-yl)-6-fluoro-3-(((1R,3S)-3-((6-oxo-5-(trifluoromethyl)-1,6-dihydropyridazin-4-yl)amino)cyclohexyl)methyl)quinazolin-4(3H)-one]: 8.8 nM. As for `C[C@@H](CCCn1cnc2cc(-c3cnc(C(F)(F)F)c(N)n3)c(F)cc2c1=O)Nc1cn[nH]c(=O)c1C(F)(F)F` [Example 337, (S)-7-(6-amino-5-(trifluoromethyl)pyrazin-2-yl)-6-fluoro-3-(4-((6-oxo-5-(trifluoromethyl)-1,6-dihydropyridazin-4-yl)amino)pentyl)quinazolin-4(3H)-one], the figure is 36.6 nM; as for `O=c1[nH]ncc(O[C@H]2CCC[C@@H](Cn3ccc4cc(-c5ncc(C(F)(F)F)cn5)c(F)cc4c3=O)C2)c1C(F)(F)F` [Example 454, 7-fluoro-2-(((1R,3S)-3-((6-oxo-5-(trifluoromethyl)-1,6-dihydropyridazin-4-yl)oxy)cyclohexyl)methyl)-6-(5-(trifluoromethyl)pyrimidin-2-yl)isoquinolin-1(2H)-one], 7.48 nM. The same measure for `O=c1[nH]ncc(N[C@H](CCCn2ccc3cc(-c4ncc(C(F)(F)F)cn4)c(F)c(F)c3c2=O)COC(F)F)c1C(F)(F)F` [Example 375, (R)-2-(5-(difluoromethoxy)-4-((6-oxo-5-(trifluoromethyl)-1,6-dihydropyridazin-4-yl)amino)pentyl)-7,8-difluoro-6-(5-(trifluoromethyl)pyrimidin-2-yl)isoquinolin-1(2H)-one]: 3.84 nM; for `O=c1[nH]ncc(N2CCC[C@H]2CCCn2ccc3cc(-c4ncc(C(F)(F)F)cn4)c(F)cc3c2=O)c1C(F)(F)F` [Example 120, (S)-7-fluoro-2-(3-(1-(6-oxo-5-(trifluoromethyl)-1,6-dihydropyridazin-4-yl)pyrrolidin-2-yl)propyl)-6-(5-(trifluoromethyl)pyrimidin-2-yl)isoquinolin-1(2H)-one]: 9.73 nM. Take `C[C@@H](CCCn1ccc2cc(-c3ncc(C(F)F)c(N[C@@H]4C[C@@H]4F)n3)c(F)cc2c1=O)Nc1cn[nH]c(=O)c1C(F)(F)F` [Example 223, 6-(5-(difluoromethyl)-4-(((1R,2S)-2-fluorocyclopropyl)amino)pyrimidin-2-yl)-7-fluoro-2-((S)-4-((6-oxo-5-(trifluoromethyl)-1,6-dihydropyridazin-4-yl)amino)pentyl)isoquinolin-1(2H)-one]: the EC50 turned out to be 33.3 nM. The same measure for `O=c1[nH]ncc(N[C@H](CCCn2ccc3nc(-c4ccc(C(F)(F)F)cn4)ccc3c2=O)COC(F)F)c1C(F)(F)F` [Example 386, (R)-6-(5-(difluoromethoxy)-4-((6-oxo-5-(trifluoromethyl)-1,6-dihydropyridazin-4-yl)amino)pentyl)-2-(5-(trifluoromethyl)pyridin-2-yl)-1,6-naphthyridin-5(6H)-one]: 2.96 nM.
